# Measurements published in PMC12222954 (Nature Communications, 2025).
# Columns and labels:
# P-gp [1] = target: T1, P-gp (Homo sapiens, UniProt P08183); assay: SPR affinity to P-gp in SMALP-MCF-7/ADR liposomes; assay type: binding
# [2] = assay type: in vivo; conditions: SD rats; for effect on the intestinal absorption of capecitabine: COS 250 mg/kg
# [3] = Intestinal transport rate, everted intestinal sac model; assay type: in vitro ADME, SD rats; conditions: pre-incubation 40 min
# [4] = test system: tight junctions between intestinal epithelial cells; assay: TEM observation of tight junctions after oral GlcN; assay type: in vivo, SD rats; conditions: GlcN 250 mg/kg, 20 min
# Caco-2 cells [5] = assay: Cell viability, Cell Counting Kit-8; assay type: cell-based; conditions: 48 h
# P-gp [6] = target: T1, P-gp; assay: Efflux of Rh123 from preloaded Caco-2 cells; assay type: cell-based; conditions: Rh123-preloaded Caco-2 cells, vs control
# P-gp [7] = target: T1, P-gp; assay: Cellular uptake of Rh123 in P-gp silenced; assay type: cell-based; conditions: P-gp knockdown Caco-2 cells, various concentrations
# [8] = Pharmacokinetics of digoxin in wild-type FVB mice with or without GlcN; assay type: in vivo
# [9] = Pharmacokinetics of digoxin in abcb1; assay type: in vivo; conditions: abcb1(-/-) mice
# P-gp [10] = target: T1, P-gp; assay type: biochemical; conditions: GlcN 10 mM, 5 min pre-incubation
# P-gp-mediated ATPase = P-gp-mediated ATPase (Homo sapiens, UniProt P08183); assay: P-gp-mediated ATPase activity in Caco-2 cells; assay type: cell-based; conditions: 10 μM GlcN
# Sequence of P-gp-mediated ATPase (P08183 whole entry): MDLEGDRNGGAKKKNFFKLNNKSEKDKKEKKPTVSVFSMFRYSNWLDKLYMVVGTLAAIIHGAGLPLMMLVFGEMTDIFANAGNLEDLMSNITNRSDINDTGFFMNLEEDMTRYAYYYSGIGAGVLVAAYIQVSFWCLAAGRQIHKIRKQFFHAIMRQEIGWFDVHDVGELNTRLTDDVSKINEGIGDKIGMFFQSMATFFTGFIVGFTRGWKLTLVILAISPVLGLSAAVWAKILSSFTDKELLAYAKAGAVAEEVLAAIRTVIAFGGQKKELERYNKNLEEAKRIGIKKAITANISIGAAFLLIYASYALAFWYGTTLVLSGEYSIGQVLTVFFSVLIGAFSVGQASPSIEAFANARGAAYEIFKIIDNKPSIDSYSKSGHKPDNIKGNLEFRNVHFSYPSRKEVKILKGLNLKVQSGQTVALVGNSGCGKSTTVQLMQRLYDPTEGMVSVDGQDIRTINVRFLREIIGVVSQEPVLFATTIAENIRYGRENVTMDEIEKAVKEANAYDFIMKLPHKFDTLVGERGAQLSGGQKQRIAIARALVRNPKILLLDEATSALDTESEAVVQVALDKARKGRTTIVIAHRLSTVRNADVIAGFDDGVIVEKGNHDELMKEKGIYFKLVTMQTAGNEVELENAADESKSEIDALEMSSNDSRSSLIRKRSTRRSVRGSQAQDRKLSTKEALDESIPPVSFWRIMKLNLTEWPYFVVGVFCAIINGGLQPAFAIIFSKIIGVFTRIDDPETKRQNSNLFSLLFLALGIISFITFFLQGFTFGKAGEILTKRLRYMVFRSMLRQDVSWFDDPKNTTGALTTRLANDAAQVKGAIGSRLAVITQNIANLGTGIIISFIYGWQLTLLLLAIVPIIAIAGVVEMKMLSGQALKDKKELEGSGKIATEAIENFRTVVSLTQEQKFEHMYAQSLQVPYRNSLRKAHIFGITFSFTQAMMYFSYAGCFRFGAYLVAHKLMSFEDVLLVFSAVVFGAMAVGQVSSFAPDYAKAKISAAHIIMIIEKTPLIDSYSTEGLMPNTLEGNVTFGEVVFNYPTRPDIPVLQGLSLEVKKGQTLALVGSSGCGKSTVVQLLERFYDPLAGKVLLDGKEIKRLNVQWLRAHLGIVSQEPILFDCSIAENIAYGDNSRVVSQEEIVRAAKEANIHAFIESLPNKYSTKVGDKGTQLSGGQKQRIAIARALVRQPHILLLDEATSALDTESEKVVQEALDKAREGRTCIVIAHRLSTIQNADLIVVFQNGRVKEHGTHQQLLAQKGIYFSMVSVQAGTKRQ
# Caco-2 cells [11] = assay type: cell-based
# A549 cells = assay type: cell-based
# P-gp [12] = target: T1, P-gp; assay: Transport of paraquat in P-gp recombinant inside-out vesicle model; assay type: biochemical; conditions: P-gp inside-out vesicles
# [13] = assay type: in vivo, SD rats; conditions: Sprague-Dawley, rat, oral
# [14] = assay type: in vivo; conditions: FVB mice, GlcN 500 mg/kg
# [15] = assay type: in vivo; conditions: abcb1(-/-) mice, GlcN 500 mg/kg
# paraquat poisoning [16] = assay type: in vivo, SD rats; conditions: for survival rate: PQ-intoxicated rats, oral 2 h post-intoxication, over 15 days
# paraquat poisoning [17] = assay: Survival of paraquat-poisoned FVB mice; assay type: in vivo, wt FVB mice; conditions: PQ-intoxicated FVB mice
# paraquat poisoning [18] = assay: Survival of paraquat-poisoned abcb1; assay type: in vivo; conditions: PQ-intoxicated abcb1(-/-) mice, 15 days
# [19] = Molar osmotic pressure of solution after adding GlcN or Glu; assay type: physicochemical; conditions: GlcN concentrations below 20 mM
# CYP3A4 = CYP3A4 (Homo sapiens, UniProt P08684); conditions: 30 min incubation, 100 μM GlcN
# Sequence of CYP3A4 (P08684 whole entry): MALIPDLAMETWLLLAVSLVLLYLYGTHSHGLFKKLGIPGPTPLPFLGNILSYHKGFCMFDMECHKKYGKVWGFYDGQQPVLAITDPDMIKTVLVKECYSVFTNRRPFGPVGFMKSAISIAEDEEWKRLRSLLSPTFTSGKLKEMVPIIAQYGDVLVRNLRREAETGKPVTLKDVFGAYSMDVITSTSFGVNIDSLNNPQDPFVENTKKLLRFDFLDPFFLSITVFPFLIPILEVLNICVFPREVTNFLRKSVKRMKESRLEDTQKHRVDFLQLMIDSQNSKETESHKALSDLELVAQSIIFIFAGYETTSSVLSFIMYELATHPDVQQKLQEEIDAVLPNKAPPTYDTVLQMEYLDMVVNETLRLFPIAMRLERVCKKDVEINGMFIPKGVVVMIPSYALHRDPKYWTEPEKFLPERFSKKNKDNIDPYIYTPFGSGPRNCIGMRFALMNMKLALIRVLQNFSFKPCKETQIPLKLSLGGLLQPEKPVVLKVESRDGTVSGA
# T1 sequence (P08183 whole entry): as the sequence (P08183 whole entry) above
smiles,measurement,setting,value
"N[C@H]1[C@H](O[C@H]2[C@H](O)[C@@H](N)[C@H](O[C@H]3[C@H](O)[C@@H](N)C(O)O[C@@H]3CO)O[C@@H]2CO)O[C@H](CO)[C@@H](O)[C@@H]1O (some centres unmarked) [COS3, chitotriose]",Kd,P-gp [1],276 µM
same,"AUC of capecitabine, of the control group",[2],12.65%
same,effect on the intestinal absorption of capecitabine,[2],inhibited
"N[C@H]1[C@H](O[C@H]2[C@H](O)[C@@H](N)C(O)O[C@@H]2CO)O[C@H](CO)[C@@H](O)[C@@H]1O (some centres unmarked) [COS2, chitobiose]",effect on the intestinal absorption of capecitabine,[2],inhibited
"N[C@H]1C(O)O[C@H](CO)[C@@H](O)[C@@H]1O (some centres unmarked) [GlcN, Glucosamine]",inhibitory effect on intestinal drug transport after prolonged pre-incubation,[3],reverses the inhibitory effect
same,tight junctions between intestinal epithelial cells before and after oral GlcN,[4],remained unchanged
same,concentrations that did not induce significant cytotoxicity,Caco-2 cells [5],below 50 mM
same,effect on fluorescence intensity of intracellular Rh123 / Rh123 transport,P-gp [6],notably reduced
same,effect on intracellular accumulation level of Rh123,P-gp [7],hardly had any effect
same,effect on oral absorption of digoxin,[8],significantly inhibited
same,effect on in vivo pharmacokinetic behavior of digoxin,[9],does not affect
same,transport activity relative to the control group,P-gp [10],~ 1.48 times
same,ATPase activity compared to baseline at peak effect,P-gp-mediated ATPase,doubled
same,effect on resistance to paraquat (cell viability),Caco-2 cells [11],significantly enhanced the resistance
same,effect on resistance to paraquat (cell viability),A549 cells,significantly enhanced the resistance
same,effect on paraquat transport,P-gp [12],enhanced its transport
same,reduction of PQ peak plasma concentration and bioavailability,[13],~ 60%
same,effect on PQ absorption,[14],significantly reduced
same,effect on PQ pharmacokinetics,[15],no substantial effect
same,survival rate,paraquat poisoning [16],60%
same,effect on survival rate,paraquat poisoning [17],improves the survival rate
same,effect on survival,paraquat poisoning [18],fails to significantly rescue
same,ΔOsmolality,[19],below 20 mOsmol/kg
same,boost of CYP3A4 enzyme activity compared to the control group,CYP3A4,301%
"C[C@@H]1C[C@H]2[C@@H]3CCC4=CC(=O)C=C[C@]4(C)[C@@]3(F)[C@@H](O)C[C@]2(C)[C@@]1(O)C(=O)CO [DEX, dexamethasone, reference compound]",survival rate,paraquat poisoning [16],30%
same,effect on survival,paraquat poisoning [18],does not improve the survival rate within 15 days
"N[C@H]1[C@H](O[C@H]2[C@H](O)[C@@H](N)[C@H](O[C@H]3[C@H](O)[C@@H](N)[C@H](O[C@H]4[C@H](O)[C@@H](N)[C@H](O[C@H]5[C@H](O)[C@@H](N)C(O)O[C@@H]5CO)O[C@@H]4CO)O[C@@H]3CO)O[C@@H]2CO)O[C@H](CO)[C@@H](O)[C@@H]1O (some centres unmarked) [COS5, chitopentaose]",effect on the intestinal absorption of capecitabine,[2],facilitated
"OC[C@H]1OC(O)[C@H](O)[C@@H](O)[C@@H]1O (some centres unmarked) [glucose, reference compound]",effect on fluorescence intensity of intracellular Rh123 / Rh123 transport,P-gp [6],no discernible effect
"C[n+]1ccc(-c2cc[n+](C)cc2)cc1 [PQ, N,N’-dimethyl-4,4’-bipyridinium]",time within which all poisoned rats without administration died,"paraquat poisoning [16]; paraquat 350 mg/kg oral, SD rats",≤ 6 days
